Test results taken from patent US10857102B2, “Therapeutic compositions comprising rilpivirine HCL and tenofovir disoproxil fumarate” (priority 2010, dated 2020).

Assay: Rilpivirine dissolution rate (laboratory data, FIG. 9)
Assay type: physicochemical
Text: Formulation 3 and Formulation 4 differ in the weight of extragranular excipients and in the amount of croscarmellose sodium present. […] It may be postulated that the higher amounts of diluents in the rilpivirine layer of Formulation 3 that was bioequivalent to the rilpivirine single agent reference tablet could have served to lessen the extent of contact and interactions between rilpivirine and emtricitabine and/or tenofovir DF and achieve bioequivalence.
In addition, the higher amount of croscarmellose sodium, a superdisintegrant, leads to faster layer disintegration and separation of the rilpivirine layer from the emtricitabine/tenofovir DF layer minimizing any potential interactions between rilpivirine with emtricitabine and/or tenofovir DF. […] This is possibly due to the basifying nature of this excipient.

rilpivirine dissolution rate (higher concentrations of croscarmellose sodium in the rilpivirine layer, FIG. 9): decreased
intrinsic dissolution rate of rilpivirine (in the presence of emtricitabine and/or tenofovir DF): increased
Structure (SMILES): Cc1cc(/C=C/C#N)cc(C)c1Nc1ccnc(Nc2ccc(C#N)cc2)n1.Cl [rilpivirine, Rilpivirine HCl]
